Like-named read-outs stand apart in the source and are kept apart here.
Test: in vivo
Conditions: for concentration at 7 day: day 7
Description: General Protocol for Prodrugs Rat PK Studies Conducted at ChemPartner, China
A total of three naïve male Wistar Han rats, 200-250 g, were received from Beijing VR Laboratory Animal Co. LTD. Following an acclimation period, the animals were assigned to the study based on acceptable health as determined by a staff veterinarian and catheter patency. Fasting of the animals before or after dosing was not required.
On Day 1, each animal received a single intramuscular injection of prepared test article at a target dose level of 20 mg/kg equivalent of EFdA and at a dose volume of 2 mL/kg. The injection sites were at gastrocnemius and identified with an indelible marker for daily monitoring during the study. The animals were manually restrained for dosing and were not sedated. The dose suspension was mixed well by inversion before each dose to ensure homogeneity. […] In addition, all animals are monitored twice daily by the veterinary staff for clinical abnormalities.
Blood samples were collected from the study animals as detailed in the sample collection Table 6 below
Each blood sample for PK (200 μL) was collected from tail vein. The blood was transferred to a tube containing NaF/Na2EDTA anticoagulant and inverted several times to mix. Draw 150 μL whole blood from the tube, add 150 uL 100 mM ammonium acetate, pH 4 buffer and mix well. The resulting blood samples were transferred to individual polypropylene tubes and immediately placed on dry ice until storage at nominally −80° C. prior to LC-MS/MS analysis.

[1] = day 63, single IM Example 11A 20 mg/kg equivalent of EFdA
[2] = day 70, single IM Example 11A 20 mg/kg equivalent of EFdA
[3] = day 77, single IM Example 11A 20 mg/kg equivalent of EFdA
[4] = day 84, single IM Example 11A 20 mg/kg equivalent of EFdA
[5] = day 91, single IM Example 11A 20 mg/kg equivalent of EFdA
[6] = day 21, single IM Example 16A 20 mg/kg equivalent of EFdA
[7] = day 28, single IM Example 16A 20 mg/kg equivalent of EFdA
[8] = day 35, single IM Example 18A 54 mg/kg
[9] = day 42, single IM Example 18A 54 mg/kg
[10] = day 49, single IM Example 18A 54 mg/kg
[11] = day 35, single IM Example 19A 55 mg/kg
[12] = day 42, single IM Example 19A 55 mg/kg
[13] = day 49, single IM Example 19A 55 mg/kg

With `C#C[C@]1(COP(=O)(N[C@@H](Cc2ccccc2)C(=O)OCCCCCCCCCCCC)OCC(=O)OCCCCCCCCCCCC)O[C@@H](n2cnc3c(N)nc(F)nc32)C[C@@H]1O` (single isomer, unassigned) [Example 11A] the “Mean concentration of EFdA” value (day 21, single IM Example 11A 20 mg/kg equivalent of EFdA) was “BQL (BQL = below quantification limit, 0.3-0.5 ng/mL for Example 11A and 0.1-0.3 ng/mL for EFdA)”, the “Mean concentration of EFdA” value (day 28, single IM Example 11A 20 mg/kg equivalent of EFdA) was “BQL (BQL = below quantification limit, 0.3-0.5 ng/mL for Example 11A and 0.1-0.3 ng/mL for EFdA)” and the “Mean concentration of EFdA” value (day 35, single IM Example 11A 20 mg/kg equivalent of EFdA) was “BQL (BQL = below quantification limit, 0.3-0.5 ng/mL for Example 11A and 0.1-0.3 ng/mL for EFdA)”. The “Mean concentration of EFdA” value (day 42, single IM Example 11A 20 mg/kg equivalent of EFdA) was “BQL (BQL = below quantification limit, 0.3-0.5 ng/mL for Example 11A and 0.1-0.3 ng/mL for EFdA)”, the “Mean concentration of EFdA” value (day 49, single IM Example 11A 20 mg/kg equivalent of EFdA) was “BQL (BQL = below quantification limit, 0.3-0.5 ng/mL for Example 11A and 0.1-0.3 ng/mL for EFdA)” and the “Mean concentration of EFdA” value (day 56, single IM Example 11A 20 mg/kg equivalent of EFdA) was “BQL (BQL = below quantification limit, 0.3-0.5 ng/mL for Example 11A and 0.1-0.3 ng/mL for EFdA)”. The “Mean concentration of EFdA” value [1] was “BQL (BQL = below quantification limit, 0.3-0.5 ng/mL for Example 11A and 0.1-0.3 ng/mL for EFdA)”, the “Mean concentration of Example 11A” value [1] was “BQL (BQL = below quantification limit, 0.3-0.5 ng/mL for Example 11A and 0.1-0.3 ng/mL for EFdA)” and the “Mean concentration of EFdA” value [2] was “BQL (BQL = below quantification limit, 0.3-0.5 ng/mL for Example 11A and 0.1-0.3 ng/mL for EFdA)”. The “Mean concentration of Example 11A” value [2] was “BQL (BQL = below quantification limit, 0.3-0.5 ng/mL for Example 11A and 0.1-0.3 ng/mL for EFdA)”, the “Mean concentration of EFdA” value [3] was “BQL (BQL = below quantification limit, 0.3-0.5 ng/mL for Example 11A and 0.1-0.3 ng/mL for EFdA)” and the “Mean concentration of Example 11A” value [3] was “BQL (BQL = below quantification limit, 0.3-0.5 ng/mL for Example 11A and 0.1-0.3 ng/mL for EFdA)”. For the same compound, the “Mean concentration of EFdA” value [4] was “BQL (BQL = below quantification limit, 0.3-0.5 ng/mL for Example 11A and 0.1-0.3 ng/mL for EFdA)”, the “Mean concentration of Example 11A” value [4] was “BQL (BQL = below quantification limit, 0.3-0.5 ng/mL for Example 11A and 0.1-0.3 ng/mL for EFdA)” and the “Mean concentration of EFdA” value [5] was “BQL (BQL = below quantification limit, 0.3-0.5 ng/mL for Example 11A and 0.1-0.3 ng/mL for EFdA)”. The “Mean concentration of Example 11A” value [5] was “BQL (BQL = below quantification limit, 0.3-0.5 ng/mL for Example 11A and 0.1-0.3 ng/mL for EFdA)”, the concentration at 1 day (male, Wistar Han, rat, whole blood, intramuscular, day 1, single IM Example 11A 20 mg/kg equivalent of EFdA, read-out: Mean concentration of Example 11A) was 207 ng/mL and the concentration at 7 day (male, Wistar Han, rat, whole blood, intramuscular, single IM Example 11A 20 mg/kg equivalent of EFdA, read-out: Mean concentration of Example 11A) was 6.93 ng/mL. For the same compound, the concentration at 14 day (male, Wistar Han, rat, whole blood, intramuscular, day 14, single IM Example 11A 20 mg/kg equivalent of EFdA, read-out: Mean concentration of Example 11A) was 0.991 ng/mL, the concentration at 21 day (male, Wistar Han, rat, whole blood, intramuscular, day 21, single IM Example 11A 20 mg/kg equivalent of EFdA, read-out: Mean concentration of Example 11A) was 2.68 ng/mL and the concentration at 28 day (male, Wistar Han, rat, whole blood, intramuscular, day 28, single IM Example 11A 20 mg/kg equivalent of EFdA, read-out: Mean concentration of Example 11A) was 2 ng/mL. The concentration at 35 day (male, Wistar Han, rat, whole blood, intramuscular, day 35, single IM Example 11A 20 mg/kg equivalent of EFdA, read-out: Mean concentration of Example 11A) was 1.35 ng/mL, the concentration at 42 day (male, Wistar Han, rat, whole blood, intramuscular, day 42, single IM Example 11A 20 mg/kg equivalent of EFdA, read-out: Mean concentration of Example 11A) was 1.03 ng/mL and the concentration at 49 day (male, Wistar Han, rat, whole blood, intramuscular, day 49, single IM Example 11A 20 mg/kg equivalent of EFdA, read-out: Mean concentration of Example 11A) was 0.929 ng/mL. The concentration at 56 day (male, Wistar Han, rat, whole blood, intramuscular, day 56, single IM Example 11A 20 mg/kg equivalent of EFdA, read-out: Mean concentration of Example 11A) was 0.95 ng/mL.
In the case of `C#C[C@]1(COP(=O)(N[C@@H](C)C(=O)OCCCCCCCCCCCCCCCCCCCCCC)Oc2ccccc2)O[C@@H](n2cnc3c(N)nc(F)nc32)C[C@@H]1O` (single isomer, unassigned) [Example 16A], the “Mean concentration of EFdA” value (day 1, single IM Example 16A 20 mg/kg equivalent of EFdA) is reported as “BQL (BQL = below quantification limit, 0.3 ng/mL for both)”, the “Mean concentration of Example 16A” value (day 14, single IM Example 16A 20 mg/kg equivalent of EFdA) is reported as “BQL (BQL = below quantification limit, 0.3 ng/mL for both)” and the “Mean concentration of EFdA” value [6] is reported as “BQL (BQL = below quantification limit, 0.3 ng/mL for both)”. For the same compound, the “Mean concentration of Example 16A” value [6] was “BQL (BQL = below quantification limit, 0.3 ng/mL for both)”, the “Mean concentration of EFdA” value [7] was “BQL (BQL = below quantification limit, 0.3 ng/mL for both)” and the “Mean concentration of Example 16A” value [7] was “BQL (BQL = below quantification limit, 0.3 ng/mL for both)”. The concentration at 1 day (male, Wistar Han, rat, in vivo, day 1, single IM Example 16A 20 mg/kg equivalent of EFdA, read-out: Mean concentration of Example 16A) was 3.05 ng/mL and the concentration at 7 day (male, Wistar Han, rat, in vivo, single IM Example 16A 20 mg/kg equivalent of EFdA, read-out: Mean concentration of Example 16A) was 1.03 ng/mL.
With `C#C[C@]1(COP(=O)(N[C@@H](Cc2ccccc2)C(=O)OCCCCCCCCCCCCCC)Oc2ccccc2)O[C@@H](n2cnc3c(N)nc(F)nc32)C[C@@H]1O` (single isomer, unassigned) [Example 18A] the “Mean concentration of EFdA” value (day 28, single IM Example 18A 54 mg/kg) was “BQL (BQL = below quantification limit, 0.3 ng/mL for both)”, the “Mean concentration of EFdA” value [8] was “BQL (BQL = below quantification limit, 0.3 ng/mL for both)” and the “Mean concentration of Example 18A” value [8] was “BQL (BQL = below quantification limit, 0.3 ng/mL for both)”. For the same compound, the “Mean concentration of EFdA” value [9] was “BQL (BQL = below quantification limit, 0.3 ng/mL for both)”, the “Mean concentration of Example 18A” value [9] was “BQL (BQL = below quantification limit, 0.3 ng/mL for both)” and the “Mean concentration of EFdA” value [10] was “BQL (BQL = below quantification limit, 0.3 ng/mL for both)”. For the same compound, the “Mean concentration of Example 18A” value [10] was “BQL (BQL = below quantification limit, 0.3 ng/mL for both)”, the concentration at 1 day (male, Wistar Han, rat, in vivo, day 1, single IM Example 18A 54 mg/kg, read-out: Mean concentration of Example 18A) was 2.47 ng/mL and the concentration at 7 day (male, Wistar Han, rat, in vivo, single IM Example 18A 54 mg/kg, read-out: Mean concentration of Example 18A) was 12 ng/mL. For the same compound, the concentration at 14 day (male, Wistar Han, rat, in vivo, day 14, single IM Example 18A 54 mg/kg, read-out: Mean concentration of Example 18A) was 1.44 ng/mL, the concentration at 21 day (male, Wistar Han, rat, in vivo, day 21, single IM Example 18A 54 mg/kg, read-out: Mean concentration of Example 18A) was 0.947 ng/mL and the concentration at 28 day (male, Wistar Han, rat, in vivo, day 28, single IM Example 18A 54 mg/kg, read-out: Mean concentration of Example 18A) was 0.614 ng/mL.
With `C#C[C@]1(COP(=O)(N[C@@H](Cc2ccccc2)C(=O)OCCCCCCCCCCCCCCC)Oc2ccccc2)O[C@@H](n2cnc3c(N)nc(F)nc32)C[C@@H]1O` (single isomer, unassigned) [Example 19A] the “Mean concentration of EFdA” value (day 28, single IM Example 19A 55 mg/kg) was “BQL (BQL = below quantification limit, 0.3 ng/mL for both)”, the “Mean concentration of EFdA” value [11] was “BQL (BQL = below quantification limit, 0.3 ng/mL for both)” and the “Mean concentration of Example 19A” value [11] was “BQL (BQL = below quantification limit, 0.3 ng/mL for both)”. For the same compound, the “Mean concentration of EFdA” value [12] was “BQL (BQL = below quantification limit, 0.3 ng/mL for both)”, the “Mean concentration of Example 19A” value [12] was “BQL (BQL = below quantification limit, 0.3 ng/mL for both)” and the “Mean concentration of EFdA” value [13] was “BQL (BQL = below quantification limit, 0.3 ng/mL for both)”. The “Mean concentration of Example 19A” value [13] was “BQL (BQL = below quantification limit, 0.3 ng/mL for both)”, the concentration at 1 day (male, Wistar Han, rat, in vivo, day 1, single IM Example 19A 55 mg/kg, read-out: Mean concentration of Example 19A) was 2.37 ng/mL and the concentration at 7 day (male, Wistar Han, rat, in vivo, single IM Example 19A 55 mg/kg, read-out: Mean concentration of Example 19A) was 9.08 ng/mL. For the same compound, the concentration at 14 day (male, Wistar Han, rat, in vivo, day 14, single IM Example 19A 55 mg/kg, read-out: Mean concentration of Example 19A) was 3.06 ng/mL, the concentration at 21 day (male, Wistar Han, rat, in vivo, day 21, single IM Example 19A 55 mg/kg, read-out: Mean concentration of Example 19A) was 1.45 ng/mL and the concentration at 28 day (male, Wistar Han, rat, in vivo, day 28, single IM Example 19A 55 mg/kg, read-out: Mean concentration of Example 19A) was 0.909 ng/mL.
